Assay results from patent US20040242538A1, “Method to improve complexation efficacy and produce high-energy cylodextrincomplexes” (priority 2001, published 2004).
Values after ≈ are worked out from the molar mass of the structure shown.

Columns and labels:
physchem = details: pH 7.4, aqueous buffer, thermodynamic from solid
Procedure: To investigate this special property of the complexes, 50 mg of complex containing the basic drug was dissolved in 25 ml of phosphate buffer 0.1 M, pH 7.4. 100 μl samples were taken from this solution and measured for 1-96 hours depending on the complex being investigated. […] Solid drug particles with and without cyclodextrin were also weighed and placed in the buffer to show the difference in solubility between samples of the drug alone, drug and cyclodextrin in a standard mixture, and drug in complex with cyclodextrin.
The solid complexes were heated in a vacuum oven for 4 days at 88° C. and 0.13×10^2 Pa. Each complex contained about 0.2 equivalents of acetic acid. A 50 mg sample of each complex was dissolved in 25 ml of the buffer. […] 12 mg of solid Basic drug A particles were also dissolved in 50 ml of the buffer with or without 38 mg of HPβCD to show the effect of complexing.

[1] = Stability of the drug in complexes during heating in the vacuum oven (HPLC); type: physicochemical; details: complexes heated at 90° C. for several days
Procedure: All solutions were lyophilized, then the obtained complex was sieved through a 300 μm sieve and heated in a vacuum oven at 60-90° C. for several days, depending on the drug being investigated.
The amount of drug per gram sample was determined on a high performance liquid chromatographic (HPLC) component system, consisting of ConstaMetric 3200 solvent delivery system operated at 1.5 ml/min, a SpectroMonitor 3200 UV/VIS variable-wavelength detector, a Merck-Hitachi AS-2000A autosampler, Merck Hitachi D-2500 Chromato-Integrator and a Phenomex ODS 5 μm (150×4.6 mm) column.
Selected Basic drug A complexes were analysed after heating in the vacuum oven at 90° C. for several days.

For `Cc1ccc(N2CCN(C)CC2)c2c1CC[C@@H](NC(=O)c1ccc(N3CCOCC3)cc1)C2` [Basic drug A, (R)-N-[5-methyl-8-(4-methylpiperazin-1-yl)-1,2,3,4-tetrahydro-2-naphthyl]-4-morpholinobenzamide], the solubility (physchem) was 34 µg/mL (≈ 75.8 µM) and the “stability during heating in the vacuum oven” value [1] was “stable during heating in the vacuum oven”.
